Results from patent US6403636B1, “Xanthone compounds, their preparation and use as medicament” (Zentaris AG, priority 1999, dated 2002).
*1 amine or outer side, *2 acyl side, *3 side chain or, on linkers, in order; H or OH if unused. Where a SMILES comes first, the peptide text is derived from it. Bridges are numbered along the chain shown (N, C = ends). Roman numbers before positions name the chains, in order. [ ]: non-standard residue; d: D form. Actinocin(9to1) = Cc1c2oc3c(C)ccc(C(=O)[*:1])c3nc-2c(C(=O)[*:2])c(N)c1=O; NMeV = CN[C@H](C(=O)O)C(C)C; Sar = CNCC(=O)O

Columns and labels:
[1] = system: MCF-7: human breast cancer; assay: In vivo antitumor activity (hollow fiber assay), MCF-7; settings: location s.c.; i.p. doses (mg/kg): sootepenseone 4 × 10, Actinomycin D 4 × 0.1, Adriamycin 4 × 4, Bleomycin 4 × 8, Vinblastin 4 × 0.65; negative values = increase in cell growth
Description: (§1) The hollow-fiber test was carried out as described by Melinda G. Hollingshead et al. in Life Sciences, Vol. 57, No. 2, pp.131-141, 1995.

[2] = system: KB: epidermal carcinoma of the oral cavity; assay: In vivo antitumor activity (hollow fiber assay), KB; settings: for % Inhibition (cell line) KB: location s.c., i.p. doses (mg/kg): sootepenseone 4 × 10, Actinomycin D 4 × 0.1, Adriamycin 4 × 4, Bleomycin 4 × 8, Vinblastin 4 × 0.65
Description: as §1

in vivo = settings: mouse, ip
mice = assay: Toxicity (LD50, i.p., mice)
[3] = system: KB: epidermal carcinoma of the oral cavity; assay: XTT proliferation/cytotoxicity test, KB; type: cell-based; settings: all tested tumor cell lines (KB, L1210, SK-OV-3, LNCAP)
Description: The XTT-assay was carried out as described by D. A. Scudiero et al., Cancer Res. 48 (Sep. 1, 1988), pp. 4827-4833. The results of this procedure are expressed as that dose which inhibits growth by 50% as compared to control growth after 45 hours following application of the substance. The dose value as obtained is referred to as ED 50 and activity is indicated for ED 50 levels of ≦30 μg/ml. […] The activities of sootepenseone (1) obtained in Example 1 are reported below in Table 2.

Compound | % Inhibition (cell line) MCF-7 [1] [%] | % Inhibition (cell line) KB [2] [%] | LD50 (in vivo) [mg/kg] | LD50 (mg/kg i.p. mice) (mice) | activity in the hollow-fiber test compared with the standard compounds ([2]; in words, KB and MCF-7) | anticancer activity against all tested tumor cell lines [3] | less toxic than Adriamycin (mice; from LD50 i.p. mice) [%] | less toxic than Bleomycin (mice; from LD50 i.p. mice) [%] | times less toxic than Actinomycin D (mice; from LD50 i.p. mice) | times less toxic than Vinblastin (mice; from LD50 i.p. mice)
COc1cccc2c1C(=O)c1c(O)c3c(c(O)c1C2=O)C[C@@](O)(C(=O)CO)C[C@@H]3O[C@H]1C[C@H](N)[C@H](O)[C@H](C)O1 [Adriamycin] | 41 | 52 | ~40 | – | – | – | – | – | – | –
Cc1c2oc3c(C)ccc(C(=O)N[C@@H]4C(=O)N[C@H](C(C)C)C(=O)N5CCC[C@H]5C(=O)N(C)CC(=O)N(C)[C@@H](C(C)C)C(=O)O[C@@H]4C)c3nc-2c(C(=O)N[C@@H]2C(=O)N[C@H](C(C)C)C(=O)N3CCC[C@H]3C(=O)N(C)CC(=O)N(C)[C@@H](C(C)C)C(=O)O[C@@H]2C)c(N)c1=O [Actinomycin D] (I: T[dV]P[Sar][NMeV] / II: T[dV]P[Sar][NMeV]; ester I:1-I:C, II:1-II:C; linker I:N-II:N via Actinocin(9to1)) | – | 40 | – | ca. 1 mg/kg | – | – | – | – | – | –
Bleomycin | – | 53 | – | ca. 80 mg/kg | – | – | – | – | – | –
CC[C@]1(O)C[C@@H]2CN(CCc3c([nH]c4ccccc34)[C@@](C(=O)OC)(c3cc4c(cc3OC)N(C)[C@H]3[C@@](O)(C(=O)OC)[C@H](OC(C)=O)[C@]5(CC)C=CCN6CC[C@]43[C@@H]65)C2)C1 [Vinblastin] | – | 13 | – | ca. 6 mg/kg | – | – | – | – | – | –
CC(C)=CC[C@]12OC(C)(C)C3CC(C=C4C(=O)c5c(O)cc6c(c5OC431)C(C)(C)C(C)O6)C2=O (stereo partly drawn) [Sootepenseone (1; D-25637), sootepenseone] | 41 | 49 | > 100 | – | more active | significant anticancer activity | 60 | 20 | at least 100 times | about 16 times
